According to US20230065562A1, “DUAL CONTROLS FOR THERAPEUTIC CELL ACTIVATION OR ELIMINATION” (Bellicum Pharmaceuticals, Inc., priority 2015, published 2023):

Tests used:
iRC9 (pBP1310 & 1311) = iRC9 (pBP1310 & 1311) (Homo sapiens, UniProt P42345+P62942); assay: SRα-SEAP assay of drug specificity, iRC9 switch, 293 cells; settings: SRα-SEAP reporter, FIG. 108A
NF-κB = NF-κB SeAP reporter assay of inducible MyD88/CD40 activity; assay type: cell-based
Procedure: 293T cells were transfected with 1 μg of reporter construct NF-κB SeAP and 4 μg of the iMC+CARζ construct pBP0774 or the MC-rap-CAR construct pBP1440 using the GeneJuice protocol (Novagen). […] After 24 hours of further incubation SeAP activity was determined from cell supernatants.
HEK 293T cells (1.5×10^5) were seeded on a 100-mm tissue culture dish in 10 mL DMEM4500, supplemented with glutamine, penicillin/streptomycin and 10% fetal calf serum. After 16-30 hours incubation, cells were transfected using Novagen's GeneJuice® protocol. Briefly, for each transfection, 0.5 mL OptiMEM was pipetted into a 1.5-mL microcentrifuge tube and 15 μL GeneJuice reagent added followed by 5 sec. vortexing. Samples were rested 5 minutes to settle the GeneJuice suspension. DNA (5 μg total) was added to each tube and mixed by pipetting up and down four times. Samples were allowed to rest for 5 minutes for GeneJuice-DNA complex formation and the suspension added dropwise to one dish of 293T cells. A typical transfection contains 1 μg NFkB-SEAP (5), 4 μg iMC+CARζ(pBP0774) or 4 μg MC-Rap-CAR (pBP1440) (1).
24 hours following transfection (4.1), 293T cells were split to 96-well plates and incubated with dilutions of dimerizing drugs. Briefly, 100 μL media was added to each well of a 96-well flat-bottom plate. Drugs were diluted in tubes to a concentration 4× the top concentration in the gradient to be place on the plate. […] 100 μL from each drug-containing well was then transferred to the adjacent well and the cycle repeated 10 times to produce a serial two-fold step gradient. The last wells were untreated and serve as a control for basal reporter activity. Transfected 293 cells were then trypsinized, washed with complete media, suspended in media and 100 μL aliquoted to each well containing drug (or no drug). Cells were incubated 24 hours.
24 hours after drug stimulation, 96-well plates were wrapped to prevent evaporation and incubated at 65° C. for 2 hours to inactivate endogenous and serum phosphatases while the heat-stable SeAP reporter remains (3, 12, 14). 100 μL samples from each well were loaded into individual wells of a 96-well assay plate with black sides. Samples were incubated with 0.5 mM 4-methylumbelliferyl phosphate (4-MUP) in 0.5 M diethanolamine at pH 10.0 for 4 to 16 hours. Phosphatase activity was measured by fluorescence with excitation at 355 nm and emission at 460 nm. Data was transferred to a Microsoft Excel spreadsheet for tabulation and graphed with GraphPad Prism.

non-transduced cells = assay: AP20187 on non-transduced cells (annexin V/7-AAD viability); assay type: cell-based, human
Procedure: Suicide gene functionality was assessed by adding a small molecule synthetic homodimerizer, AP20187 (Ariad Pharmaceuticals; Cambridge, Mass.), at 10 nM final concentration the day following CD19 immunomagnetic selection. Cells were stained with annexin V and 7-amino-actinomycin (7-AAD)(BD Pharmingen) at 24 hours and analyzed by flow cytometry. Cells negative for both annexin V and 7-AAD were considered viable, cells that were annexin V positive were apoptotic, and cells that were both annexin V and 7-AAD positive were necrotic. The percentage killing induced by dimerization was corrected for baseline viability as follows: Percentage killing=100%−(% Viability in AP20187-treated cells÷% Viability in nontreated cells).
The day following immunomagnetic selection, 10 nM of the chemical inducer of dimerization, AP20187, was added to induce apoptosis, which appeared within 24 hours. […] Killing efficiency after correction for baseline viability was about 92.9%±3.8%. Large-scale CD19 selection produced cells that were killed with similar efficiency as small-scale selection: mean viability with and without AP20187, and percentage killing, in large and small scale were about 3.9%, about 84.0%, about 95.4% (n=3) and about 6.6%, about 79.3%, about 91.4% (n=5) respectively. […]

[1] = system: iCasp9-ΔCD19-transduced MSCs; assay: In vivo killing studies of iCasp9-ΔCD19 MSCs in murine model; parameters: species or system SCID mice
Procedure: All mouse experiments were performed in accordance with the Baylor College of Medicine animal husbandry guidelines. To assess the persistence of modified MSCs in vivo, a SCID mouse model was used in conjunction with an in vivo imaging system. MSCs were transduced with retroviruses coding for the enhanced green fluorescent protein-firefly luciferase (eGFP-FFLuc) gene alone or together with the iCasp9-ΔCD19 gene. Cells were sorted for eGFP positivity by fluorescence activated cell sorting using a MoFlo flow cytometer (Beckman Coulter, Fullerton, Calif.). Doubly transduced cells were also stained with PE-conjugated anti-CD19 and sorted for PE-positivity. SCID mice (8-10 weeks old) were injected subcutaneously with 5×10^5 MSCs with and without iCasp9-ΔCD19 in opposite flanks. […] For in vivo imaging of MSCs expressing eGFP-FFLuc, mice were injected intraperitoneally with D-luciferin (150 mg/kg) and analyzed using the Xenogen-IVIS Imaging System. Total luminescence (a measurement proportional to the total labeled MSCs deposited) at each time point was calculated by automatically defining regions-of-interest (ROIs) over the MSC implantation sites. These ROIs included all areas with luminescence signals at least 5% above background. Total photon counts were integrated for each ROI and an average value calculated. […]

Sequence of iRC9 (pBP1310 & 1311) (P42345 2025-2113): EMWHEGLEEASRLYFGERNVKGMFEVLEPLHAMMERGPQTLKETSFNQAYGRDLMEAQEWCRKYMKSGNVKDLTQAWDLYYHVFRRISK
Sequence of iRC9 (pBP1310 & 1311) (P62942 2-107): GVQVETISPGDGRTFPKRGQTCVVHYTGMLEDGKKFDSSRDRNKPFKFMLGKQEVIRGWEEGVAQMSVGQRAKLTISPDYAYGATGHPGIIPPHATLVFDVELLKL
Sequence of iRC9 (pBP1310 & 1311) (P55211 135-416 partner limits assumed): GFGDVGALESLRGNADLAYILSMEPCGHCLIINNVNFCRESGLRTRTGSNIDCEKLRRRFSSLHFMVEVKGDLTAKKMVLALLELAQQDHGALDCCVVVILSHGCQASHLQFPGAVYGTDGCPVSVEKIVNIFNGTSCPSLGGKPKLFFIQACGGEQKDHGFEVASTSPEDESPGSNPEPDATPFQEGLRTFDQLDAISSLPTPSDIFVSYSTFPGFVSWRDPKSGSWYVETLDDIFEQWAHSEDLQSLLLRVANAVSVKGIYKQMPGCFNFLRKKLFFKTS

SMILES: CC[C@H](C(=O)N1CCCC[C@H]1C(=O)O[C@H](CCc1ccc(OC)c(OC)c1)c1cccc(OCC(=O)NCCNC(=O)COc2cccc([C@@H](CCc3ccc(OC)c(OC)c3)OC(=O)[C@@H]3CCCCN3C(=O)[C@@H](CC)c3cc(OC)c(OC)c(OC)c3)c2)c1)c1cc(OC)c(OC)c(OC)c1 [rimiducid]
- ligand required to activate the iRC9 switch (iRC9 (pBP1310 & 1311)): > 100 nM
- EC50 (NF-κB; MC-rap-CAR construct pBP1440, read-out: EC50 / concentration stimulating NF-κB reporter activity via MC-Rap): > 50 nM
- concentration inducing NF-κB reporter via iMC (NF-κB; iMC+CARζ construct BP774): subnanomolar

SMILES: CC[C@H](C(=O)N1CCCC[C@H]1C(=O)O[C@H](CCc1ccc(OC)c(OC)c1)c1cccc(OCC(=O)NCC(CNC(=O)COc2cccc([C@@H](CCc3ccc(OC)c(OC)c3)OC(=O)[C@@H]3CCCCN3C(=O)[C@@H](CC)c3cc(OC)c(OC)c(OC)c3)c2)CN(C)C)c1)c1cc(OC)c(OC)c(OC)c1 [AP20187]
- toxicity to non-transduced cells (non-transduced cells): non-toxic
- viability with AP20187 (non-transduced cells; non-transduced cells (n=6)): about 86%±9
- proportion of surviving iCasp9-positive cells after one week ([1]; qPCR iCasp9/eGFP copy ratio): 0.7%
- killing / depletion of iCasp9-positive cells in vivo ([1]; two i.p. injections of 50 μg CID 24 h apart): > 99%
